Results reported in ChEMBL document CHEMBL3991601, “The target landscape of clinical kinase drugs” (Science, 2017).
pKd: −log10 of the molar value. Active and inactive are the calls of the source. Cut-off read from the data, not from the text of the source, for most assays here: actives have a measured Kd and inactives only a lower limit.

How the values were obtained:
[1] = molecular target: Rho-associated protein kinase 2 (Homo sapiens, UniProt O75116)
[2] = molecular target: Mitogen-activated protein kinase kinase kinase 20 (Homo sapiens, UniProt Q9NYL2)
[3] = molecular target: Epithelial discoidin domain-containing receptor 1 (Homo sapiens, UniProt Q08345)
[4] = molecular target: T1, Thyroid hormone receptor-associated protein 3 (Homo sapiens, UniProt Q9Y2W1)
T1 sequence (Q9Y2W1 whole entry): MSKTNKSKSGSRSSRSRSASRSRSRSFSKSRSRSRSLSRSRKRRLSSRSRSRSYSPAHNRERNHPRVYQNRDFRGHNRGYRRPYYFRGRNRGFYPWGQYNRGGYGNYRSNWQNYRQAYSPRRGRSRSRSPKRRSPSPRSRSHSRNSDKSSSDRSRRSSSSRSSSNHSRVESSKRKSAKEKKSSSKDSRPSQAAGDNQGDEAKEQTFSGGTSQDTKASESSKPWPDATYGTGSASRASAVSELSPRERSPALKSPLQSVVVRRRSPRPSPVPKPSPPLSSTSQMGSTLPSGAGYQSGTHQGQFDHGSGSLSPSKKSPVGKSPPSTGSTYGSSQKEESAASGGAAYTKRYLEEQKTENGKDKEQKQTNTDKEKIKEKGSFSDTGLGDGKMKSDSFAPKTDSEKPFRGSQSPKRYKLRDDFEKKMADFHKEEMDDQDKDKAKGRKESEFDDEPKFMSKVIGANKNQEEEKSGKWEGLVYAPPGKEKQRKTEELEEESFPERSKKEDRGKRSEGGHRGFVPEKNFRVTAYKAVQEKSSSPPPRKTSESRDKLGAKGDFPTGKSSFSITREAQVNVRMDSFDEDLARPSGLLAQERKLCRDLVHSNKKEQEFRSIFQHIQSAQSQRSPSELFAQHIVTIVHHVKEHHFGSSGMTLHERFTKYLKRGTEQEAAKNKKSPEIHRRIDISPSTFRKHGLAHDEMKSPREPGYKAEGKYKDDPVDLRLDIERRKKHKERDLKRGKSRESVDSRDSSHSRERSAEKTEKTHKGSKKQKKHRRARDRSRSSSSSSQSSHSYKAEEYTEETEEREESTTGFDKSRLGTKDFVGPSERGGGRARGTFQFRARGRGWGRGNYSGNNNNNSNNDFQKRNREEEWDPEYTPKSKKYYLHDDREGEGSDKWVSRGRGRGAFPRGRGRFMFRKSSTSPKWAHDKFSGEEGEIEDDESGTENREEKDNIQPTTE

[5] = molecular target: Mitogen-activated protein kinase kinase kinase 4 (Homo sapiens, UniProt Q9Y6R4)
[6] = molecular target: cAMP-dependent protein kinase catalytic subunit alpha (Homo sapiens, UniProt P17612)
[7] = molecular target: Serine/threonine-protein kinase PAK 2 (Homo sapiens, UniProt Q13177)
[8] = molecular target: Calcium/calmodulin-dependent protein kinase type II subunit delta (Homo sapiens, UniProt Q13557)
Calcium/calmodulin-dependent protein kinase type II subunit delta, sequence (Q13557 whole entry): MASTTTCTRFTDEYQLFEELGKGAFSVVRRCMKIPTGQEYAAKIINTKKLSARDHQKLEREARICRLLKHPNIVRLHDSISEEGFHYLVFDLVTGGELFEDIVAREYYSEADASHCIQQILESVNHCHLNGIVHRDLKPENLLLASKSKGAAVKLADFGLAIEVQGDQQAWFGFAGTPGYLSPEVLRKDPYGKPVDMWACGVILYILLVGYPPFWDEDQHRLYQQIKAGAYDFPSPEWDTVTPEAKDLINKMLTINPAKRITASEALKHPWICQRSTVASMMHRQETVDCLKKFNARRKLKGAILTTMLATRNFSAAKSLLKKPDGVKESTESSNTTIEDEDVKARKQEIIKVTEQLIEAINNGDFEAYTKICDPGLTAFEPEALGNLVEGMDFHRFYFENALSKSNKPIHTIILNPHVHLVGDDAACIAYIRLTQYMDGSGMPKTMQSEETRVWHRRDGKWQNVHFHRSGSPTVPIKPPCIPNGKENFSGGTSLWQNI

[9] = molecular target: Cyclin-dependent kinase 4 (Homo sapiens, UniProt P11802)
[10] = molecular target: Cyclin-dependent kinase 12 (Homo sapiens, UniProt Q9NYV4)
[11] = molecular target: T2, Dual specificity mitogen-activated protein kinase kinase 3 (Homo sapiens, UniProt P46734)
T2 sequence (P46734 whole entry): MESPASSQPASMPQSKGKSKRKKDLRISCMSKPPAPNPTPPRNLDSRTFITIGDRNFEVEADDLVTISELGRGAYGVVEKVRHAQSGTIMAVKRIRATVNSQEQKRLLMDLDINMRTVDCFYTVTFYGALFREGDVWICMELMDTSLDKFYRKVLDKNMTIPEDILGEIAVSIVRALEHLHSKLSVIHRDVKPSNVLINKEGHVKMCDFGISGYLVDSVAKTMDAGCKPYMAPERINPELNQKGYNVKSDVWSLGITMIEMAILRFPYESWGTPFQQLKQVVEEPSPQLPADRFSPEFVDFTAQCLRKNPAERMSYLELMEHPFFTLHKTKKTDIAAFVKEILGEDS

DNA topoisomerase 2-beta = DNA topoisomerase 2-beta (Homo sapiens, UniProt Q02880)
DNA topoisomerase 2-beta, sequence (Q02880 whole entry): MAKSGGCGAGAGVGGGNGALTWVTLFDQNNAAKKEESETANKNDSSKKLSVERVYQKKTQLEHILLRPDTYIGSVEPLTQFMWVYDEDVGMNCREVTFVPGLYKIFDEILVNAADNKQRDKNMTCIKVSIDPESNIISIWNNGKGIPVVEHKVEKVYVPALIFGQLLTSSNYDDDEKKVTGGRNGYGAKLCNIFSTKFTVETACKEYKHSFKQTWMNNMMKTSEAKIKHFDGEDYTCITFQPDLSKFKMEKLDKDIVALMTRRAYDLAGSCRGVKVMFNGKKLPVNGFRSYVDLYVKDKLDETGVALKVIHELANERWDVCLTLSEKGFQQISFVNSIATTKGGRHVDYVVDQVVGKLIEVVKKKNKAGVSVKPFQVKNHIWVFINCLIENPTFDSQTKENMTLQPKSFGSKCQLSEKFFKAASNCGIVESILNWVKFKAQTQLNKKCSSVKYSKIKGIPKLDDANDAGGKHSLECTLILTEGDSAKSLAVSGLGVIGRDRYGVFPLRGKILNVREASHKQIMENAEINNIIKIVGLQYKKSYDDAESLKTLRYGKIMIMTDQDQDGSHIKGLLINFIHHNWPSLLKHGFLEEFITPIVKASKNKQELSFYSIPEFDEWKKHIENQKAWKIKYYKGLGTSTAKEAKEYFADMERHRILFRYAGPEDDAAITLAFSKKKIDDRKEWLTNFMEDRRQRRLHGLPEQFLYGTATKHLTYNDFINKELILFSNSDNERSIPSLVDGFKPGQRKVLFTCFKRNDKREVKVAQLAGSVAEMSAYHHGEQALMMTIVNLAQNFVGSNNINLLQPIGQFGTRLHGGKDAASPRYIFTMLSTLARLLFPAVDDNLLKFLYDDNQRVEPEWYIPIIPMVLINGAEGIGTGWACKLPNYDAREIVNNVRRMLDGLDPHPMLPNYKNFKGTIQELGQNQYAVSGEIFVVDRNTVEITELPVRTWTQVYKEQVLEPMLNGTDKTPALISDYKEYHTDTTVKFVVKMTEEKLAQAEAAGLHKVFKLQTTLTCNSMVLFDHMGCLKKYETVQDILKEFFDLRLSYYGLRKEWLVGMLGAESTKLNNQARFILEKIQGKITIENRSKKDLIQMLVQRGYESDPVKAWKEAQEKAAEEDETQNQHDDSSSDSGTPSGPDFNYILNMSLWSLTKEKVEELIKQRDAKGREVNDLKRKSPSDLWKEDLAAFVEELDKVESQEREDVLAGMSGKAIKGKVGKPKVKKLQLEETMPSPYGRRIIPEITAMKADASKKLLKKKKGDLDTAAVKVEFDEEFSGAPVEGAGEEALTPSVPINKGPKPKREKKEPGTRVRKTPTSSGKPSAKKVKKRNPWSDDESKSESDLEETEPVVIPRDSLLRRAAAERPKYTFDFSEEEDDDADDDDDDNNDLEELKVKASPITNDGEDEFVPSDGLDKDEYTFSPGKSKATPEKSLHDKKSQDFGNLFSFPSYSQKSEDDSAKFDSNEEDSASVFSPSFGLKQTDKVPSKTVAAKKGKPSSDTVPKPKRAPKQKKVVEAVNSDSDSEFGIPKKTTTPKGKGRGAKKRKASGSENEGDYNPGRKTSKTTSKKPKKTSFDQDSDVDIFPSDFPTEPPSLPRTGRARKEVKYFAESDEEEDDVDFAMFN

[12] = molecular target: T3, Glycogen phosphorylase, brain form (Homo sapiens, UniProt P11216)
T3 sequence (P11216 whole entry): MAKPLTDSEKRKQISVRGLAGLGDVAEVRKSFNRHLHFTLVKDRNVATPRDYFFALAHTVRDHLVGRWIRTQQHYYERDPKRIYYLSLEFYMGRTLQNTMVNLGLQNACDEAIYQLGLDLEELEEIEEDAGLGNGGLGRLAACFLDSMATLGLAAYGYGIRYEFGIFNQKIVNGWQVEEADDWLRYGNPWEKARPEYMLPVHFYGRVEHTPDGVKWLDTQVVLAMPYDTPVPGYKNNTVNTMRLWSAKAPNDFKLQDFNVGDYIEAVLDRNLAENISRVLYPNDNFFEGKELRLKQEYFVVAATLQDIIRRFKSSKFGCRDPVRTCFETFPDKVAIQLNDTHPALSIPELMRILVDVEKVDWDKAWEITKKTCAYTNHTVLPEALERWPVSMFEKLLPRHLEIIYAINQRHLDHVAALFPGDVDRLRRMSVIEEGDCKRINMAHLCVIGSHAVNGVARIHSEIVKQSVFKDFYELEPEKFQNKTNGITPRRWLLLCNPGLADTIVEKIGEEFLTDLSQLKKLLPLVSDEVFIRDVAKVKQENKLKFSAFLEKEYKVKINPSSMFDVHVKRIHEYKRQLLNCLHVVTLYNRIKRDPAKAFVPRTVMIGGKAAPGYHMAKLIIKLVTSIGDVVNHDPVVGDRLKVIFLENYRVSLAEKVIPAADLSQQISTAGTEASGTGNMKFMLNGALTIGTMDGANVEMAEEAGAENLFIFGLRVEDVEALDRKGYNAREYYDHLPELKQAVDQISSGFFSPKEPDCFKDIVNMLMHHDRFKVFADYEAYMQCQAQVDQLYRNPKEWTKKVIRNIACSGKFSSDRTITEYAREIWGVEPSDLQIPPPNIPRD

[13] = molecular target: Mitogen-activated protein kinase 9 (Homo sapiens, UniProt P45984)
Mitogen-activated protein kinase 9, sequence (P45984 whole entry): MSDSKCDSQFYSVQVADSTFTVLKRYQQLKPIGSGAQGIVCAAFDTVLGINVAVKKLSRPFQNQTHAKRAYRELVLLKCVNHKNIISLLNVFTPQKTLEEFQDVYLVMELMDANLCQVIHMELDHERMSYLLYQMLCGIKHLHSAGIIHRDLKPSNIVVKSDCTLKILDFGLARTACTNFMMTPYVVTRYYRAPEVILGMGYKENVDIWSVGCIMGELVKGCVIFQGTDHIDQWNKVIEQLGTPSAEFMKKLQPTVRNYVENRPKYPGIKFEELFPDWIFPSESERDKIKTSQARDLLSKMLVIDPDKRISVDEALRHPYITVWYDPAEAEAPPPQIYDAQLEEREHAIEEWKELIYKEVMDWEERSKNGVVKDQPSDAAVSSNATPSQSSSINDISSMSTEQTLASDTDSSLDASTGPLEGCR

Ephrin type-A receptor 4 = Ephrin type-A receptor 4 (Homo sapiens, UniProt P54764)
Ephrin type-A receptor 4, sequence (P54764 whole entry): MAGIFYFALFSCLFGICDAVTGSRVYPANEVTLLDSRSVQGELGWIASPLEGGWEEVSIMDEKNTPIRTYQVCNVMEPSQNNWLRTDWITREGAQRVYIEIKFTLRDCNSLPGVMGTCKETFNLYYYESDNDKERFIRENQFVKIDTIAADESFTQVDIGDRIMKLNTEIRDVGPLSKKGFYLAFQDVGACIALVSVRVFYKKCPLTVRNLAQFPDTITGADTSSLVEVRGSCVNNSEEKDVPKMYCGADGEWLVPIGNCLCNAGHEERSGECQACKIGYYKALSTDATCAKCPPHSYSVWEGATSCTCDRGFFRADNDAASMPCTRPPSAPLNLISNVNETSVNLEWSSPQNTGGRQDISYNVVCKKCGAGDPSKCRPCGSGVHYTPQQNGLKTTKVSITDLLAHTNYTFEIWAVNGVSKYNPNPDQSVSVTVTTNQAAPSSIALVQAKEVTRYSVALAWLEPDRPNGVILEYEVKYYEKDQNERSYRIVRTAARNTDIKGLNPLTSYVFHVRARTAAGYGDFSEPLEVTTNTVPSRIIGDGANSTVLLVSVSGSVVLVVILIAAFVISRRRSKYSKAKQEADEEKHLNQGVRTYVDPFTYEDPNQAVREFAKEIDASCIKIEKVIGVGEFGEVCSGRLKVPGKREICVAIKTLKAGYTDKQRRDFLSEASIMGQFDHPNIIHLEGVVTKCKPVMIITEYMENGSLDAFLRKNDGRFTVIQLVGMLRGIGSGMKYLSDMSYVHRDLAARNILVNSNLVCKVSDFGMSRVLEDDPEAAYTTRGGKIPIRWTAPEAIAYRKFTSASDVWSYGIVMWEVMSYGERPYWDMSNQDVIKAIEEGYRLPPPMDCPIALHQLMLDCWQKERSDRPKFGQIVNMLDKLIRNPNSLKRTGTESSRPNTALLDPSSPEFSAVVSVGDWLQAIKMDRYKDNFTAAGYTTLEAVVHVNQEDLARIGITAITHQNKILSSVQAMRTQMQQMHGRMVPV
Note: in the data inactive means no Kd found up to 30 µM.

Rho-associated protein kinase 2, sequence (O75116 whole entry): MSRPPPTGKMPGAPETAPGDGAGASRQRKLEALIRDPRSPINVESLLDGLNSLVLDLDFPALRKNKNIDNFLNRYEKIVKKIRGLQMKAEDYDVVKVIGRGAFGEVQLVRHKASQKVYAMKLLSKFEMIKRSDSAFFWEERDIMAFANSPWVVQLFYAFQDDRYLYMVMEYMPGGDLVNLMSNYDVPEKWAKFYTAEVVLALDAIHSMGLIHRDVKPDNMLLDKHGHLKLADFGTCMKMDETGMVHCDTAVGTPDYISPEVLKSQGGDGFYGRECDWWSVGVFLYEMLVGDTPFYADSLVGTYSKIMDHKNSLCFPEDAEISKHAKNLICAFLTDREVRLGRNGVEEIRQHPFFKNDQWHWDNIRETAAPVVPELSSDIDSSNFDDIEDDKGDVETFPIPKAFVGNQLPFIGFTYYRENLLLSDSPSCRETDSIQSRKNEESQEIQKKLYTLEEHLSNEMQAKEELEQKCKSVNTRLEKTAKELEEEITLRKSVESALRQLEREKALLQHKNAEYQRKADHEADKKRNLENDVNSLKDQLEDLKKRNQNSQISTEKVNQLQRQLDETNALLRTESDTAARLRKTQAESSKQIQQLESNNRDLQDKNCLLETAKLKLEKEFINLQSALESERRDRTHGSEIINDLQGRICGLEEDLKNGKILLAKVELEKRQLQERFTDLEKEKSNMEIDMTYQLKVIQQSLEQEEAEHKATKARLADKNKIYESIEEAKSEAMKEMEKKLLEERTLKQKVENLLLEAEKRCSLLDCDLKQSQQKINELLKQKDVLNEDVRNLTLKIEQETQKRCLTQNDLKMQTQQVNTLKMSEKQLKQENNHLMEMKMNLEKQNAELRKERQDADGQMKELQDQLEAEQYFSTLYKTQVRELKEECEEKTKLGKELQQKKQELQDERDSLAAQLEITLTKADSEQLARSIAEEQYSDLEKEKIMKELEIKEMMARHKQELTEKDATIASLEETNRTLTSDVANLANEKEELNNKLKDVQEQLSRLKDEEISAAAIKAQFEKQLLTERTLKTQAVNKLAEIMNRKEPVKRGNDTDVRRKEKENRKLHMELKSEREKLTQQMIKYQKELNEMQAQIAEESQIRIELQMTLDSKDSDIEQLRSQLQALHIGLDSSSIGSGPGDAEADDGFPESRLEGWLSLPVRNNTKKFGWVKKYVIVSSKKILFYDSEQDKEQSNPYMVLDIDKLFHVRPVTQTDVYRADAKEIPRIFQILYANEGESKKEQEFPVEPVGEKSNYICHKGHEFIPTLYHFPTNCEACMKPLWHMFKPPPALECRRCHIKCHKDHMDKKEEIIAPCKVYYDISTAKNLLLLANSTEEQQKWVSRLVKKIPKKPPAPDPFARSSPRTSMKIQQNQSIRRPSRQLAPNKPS

Kd [1] | Kd [2] | Kd [3] | Kd [4] | Kd [5] | Kd [6] | Kd [7] | Kd [8] | Kd [9] | Kd [10] | Kd [11] | Kd (DNA topoisomerase 2-beta) | Kd [12] | Kd [13] | Kd (Ephrin type-A receptor 4) | pKd [6] | SMILES
> 30 µM (inactive) | > 30 µM (inactive) | > 30 µM (inactive) | > 30 µM (inactive) | > 30 µM (inactive) | > 30 µM (inactive) | > 30 µM (inactive) | > 30 µM (inactive) | > 30 µM (inactive) | > 30 µM (inactive) | > 30 µM (inactive) | > 30 µM (inactive) | > 30 µM (inactive) | > 30 µM (inactive) | > 30 µM (inactive) |  | NC1(c2ccc(-c3nc4ccn5c(=O)[nH]nc5c4cc3-c3ccccc3)cc2)CCC1 [MK-2206]
> 30 µM (inactive) | > 30 µM (inactive) | > 30 µM (inactive) | > 30 µM (inactive) | > 30 µM (inactive) | > 30 µM (inactive) | > 30 µM (inactive) | > 30 µM (inactive) | > 30 µM (inactive) | > 30 µM (inactive) | > 30 µM (inactive) | > 30 µM (inactive) | > 30 µM (inactive) | > 30 µM (inactive) | > 30 µM (inactive) |  | Cn1cc(-c2cnc3ccc4ccc(CS(=O)(=O)NCc5ccccn5)cc4c(=O)c3c2)cn1 [MK-8033]
> 30 µM (inactive) | > 30 µM (inactive) | > 30 µM (inactive) | > 30 µM (inactive) | > 30 µM (inactive) | > 30 µM (inactive) | > 30 µM (inactive) | > 30 µM (inactive) | > 30 µM (inactive) | > 30 µM (inactive) | > 30 µM (inactive) | > 30 µM (inactive) | > 30 µM (inactive) | > 30 µM (inactive) | > 30 µM (inactive) |  | Cc1cnc(NC(=O)Nc2cc(Br)c(C)cc2OC[C@@H]2CNCCO2)cn1 [RABUSERTIB]
> 30 µM (inactive) | > 30 µM (inactive) | > 30 µM (inactive) | > 30 µM (inactive) | > 30 µM (inactive) | > 30 µM (inactive) | > 30 µM (inactive) | > 30 µM (inactive) | > 30 µM (inactive) | > 30 µM (inactive) | > 30 µM (inactive) | > 30 µM (inactive) | > 30 µM (inactive) | > 30 µM (inactive) | > 30 µM (inactive) |  | CO[C@H]1C[C@@H]2CC[C@@H](C)[C@@](O)(O2)C(=O)C(=O)N2CCCC[C@H]2C(=O)O[C@H]([C@H](C)C[C@@H]2CC[C@@H](OP(C)(C)=O)[C@H](OC)C2)CC(=O)[C@H](C)/C=C(\C)[C@@H](O)[C@@H](OC)C(=O)[C@H](C)C[C@H](C)/C=C/C=C/C=C/1C [RIDAFOROLIMUS]
> 30 µM (inactive) | 4.76 µM (active) | > 30 µM (inactive) | > 30 µM (inactive) | > 30 µM (inactive) | > 30 µM (inactive) | > 30 µM (inactive) | > 30 µM (inactive) | > 30 µM (inactive) | > 30 µM (inactive) | > 30 µM (inactive) | > 30 µM (inactive) | > 30 µM (inactive) | > 30 µM (inactive) | > 30 µM (inactive) |  | N#CC1(c2ccc(NC(=O)c3cccnc3NCc3ccncc3)cc2)CCCC1 [RIVOCERANIB]
0.016 µM (active) | > 30 µM (inactive) | > 30 µM (inactive) | > 30 µM (inactive) | > 30 µM (inactive) |  | > 30 µM (inactive) | > 30 µM (inactive) | > 30 µM (inactive) | > 30 µM (inactive) | > 30 µM (inactive) | > 30 µM (inactive) | > 30 µM (inactive) | > 30 µM (inactive) | > 30 µM (inactive) | 7.89 | O=c1[nH]ccc2cc(OC3CCNCC3)ccc12 [SAR-407899 FREE BASE]
> 30 µM (inactive) | > 30 µM (inactive) | > 30 µM (inactive) | > 30 µM (inactive) | > 30 µM (inactive) | > 30 µM (inactive) | > 30 µM (inactive) | > 30 µM (inactive) | > 30 µM (inactive) | > 30 µM (inactive) | > 30 µM (inactive) | > 30 µM (inactive) | > 30 µM (inactive) | > 30 µM (inactive) | > 30 µM (inactive) |  | Cn1cc(-c2cnn3c(N)c(Br)c([C@@H]4CCCNC4)nc23)cn1 [SCH-900776]
> 30 µM (inactive) | > 30 µM (inactive) | > 30 µM (inactive) | > 30 µM (inactive) | > 30 µM (inactive) | > 30 µM (inactive) | > 30 µM (inactive) | > 30 µM (inactive) | > 30 µM (inactive) | > 30 µM (inactive) | > 30 µM (inactive) | > 30 µM (inactive) | > 30 µM (inactive) | > 30 µM (inactive) | > 30 µM (inactive) |  | CO[C@H]1C[C@@H]2CC[C@@H](C)[C@@](O)(O2)C(=O)C(=O)N2CCCC[C@H]2C(=O)O[C@H]([C@H](C)C[C@@H]2CC[C@@H](O)[C@H](OC)C2)CC(=O)[C@H](C)/C=C(\C)[C@@H](O)[C@@H](OC)C(=O)[C@H](C)C[C@H](C)/C=C/C=C/C=C/1C [SIROLIMUS]
> 30 µM (inactive) | > 30 µM (inactive) | 0.073 µM (active) | > 30 µM (inactive) | > 30 µM (inactive) | > 30 µM (inactive) | > 30 µM (inactive) | > 30 µM (inactive) | > 30 µM (inactive) | > 30 µM (inactive) | > 30 µM (inactive) | > 30 µM (inactive) | > 30 µM (inactive) | > 30 µM (inactive) | 0.44 µM (active) |  | COc1cc2c(Nc3ccc(Cl)c(Cl)c3F)ncnc2cc1OC[C@@H]1C[C@@H]2CN(C)C[C@@H]2C1 [TESEVATINIB]

SMILES | Kd [1] | Kd [2] | Kd [3] | Kd [4] | Kd [5] | Kd [6] | Kd [7] | Kd [8] | Kd [9] | Kd [10] | Kd [11] | Kd (DNA topoisomerase 2-beta) | Kd [12] | Kd [13] | Kd (Ephrin type-A receptor 4) | pKd [6]
CCCCCCCCCCCCCCCCCCOP(=O)([O-])OC1CC[N+](C)(C)CC1 [PERIFOSINE] | > 30 µM (inactive) | > 30 µM (inactive) | > 30 µM (inactive) | > 30 µM (inactive) | > 30 µM (inactive) | > 30 µM (inactive) | > 30 µM (inactive) | > 30 µM (inactive) | > 30 µM (inactive) | > 30 µM (inactive) | > 30 µM (inactive) | > 30 µM (inactive) | > 30 µM (inactive) | > 30 µM (inactive) | > 30 µM (inactive) | 
